Experimental data: patent US20220194938A1, “NOVEL COMPOUNDS AND PHARMACEUTICAL COMPOSITIONS THEREOF FOR THE TREATMENT OF INFLAMMATORY DISORDERS” (GALAPAGOS NV, priority 2019, published 2022)
In brackets after ≈: the same amount, converted by molar mass. Several values for one entry are separate records, joined by “and”; a condition that tells them apart may be missing. Equal values may be shown once. Read-outs that look alike come from different tables or passages of the source.

Assay: Thermodynamic solubility
Format: physicochemical
Conditions: 37° C.; for solubility thermodynamic at 24 h: thermodynamic from solid
Description: 4.2. Thermodynamic Solubility
Poor solubility, in particular poor thermodynamic solubility can limit the absorption of compounds from the gastrointestinal tract which in turn may reduce oral bioavailability.
Thermodynamic solubility investigates the solubility of a compound as a saturated solution in equilibrium, by opposition to kinetic solubility, which measures the solubility of a metastable solution where supersaturation may occur and provide over estimation of the actual solubility of the compound. (Klein 2010)
4.2.1. Thermodynamic Solubility—Protocol 1
(§1) In a 8 mL glass vial, 1-2 mg of dry matter of compound are added and stirred with the suitable buffers (Fed State Simulated Intestine Fluid, FeSSIF, or Fasted State Simulated Intestine Fluid, FaSSIF, or Fasted State Simulated Gastric Fluid, FaSSGF, or phosphate buffer pH 7.4) for 24 h at r.t. (for the buffer pH 7.4) or 37° C. (for the GI fluids). The concentration of the mixture is 1 mg/mL.
A volume of 500 μL are sampled, centrifuged for 10 min at 10 000 rpm and filtered. The samples are diluted in duplicates in DMSO (F100 and F10). Then, a final dilution (F100) in 80/20 H2O/MeCN containing the internal standard (warfarin) is used for LCMS-MS analysis.
A standard curve is made starting from a 200,000 ng/mL stock in DMSO, freshly prepared from dry matter. Then, successive concentrations at […], 1,000, 200 and 75 ng/mL in DMSO are prepared by using the Tecan robot.
Two quality control samples are made: one of 10,000 ng/mL and one of 500 ng/mL in DMSO, also starting from the DMSO working stock solution at 200,000 ng/mL.
The standard curve and quality controls are diluted a F100 in 80/20 H2O/MeCN (with internal standard) and analyzed on LC/MS-MS (API4000 or API5500).
(§2) The samples are analyzed on LC-MS with a flow rate of 0.6 mL/min. The mobile phase A is 0.1% formic acid in water and the mobile phase B is 0.1% formic acid in MeCN. The sample is run under positive or negative ion spray on Pursuit C18-5 μm (2.0×20 mm) column, from Agilent.
The peak areas of the standard curve are plotted in a graph and a linear or polynomial of the second order equation is used to calculate the unknown concentrations of the test compound.
4.2.2. Thermodynamic Solubility—Protocol 2
as §1, with “In an” for “In a”, “compound were” for “compound are”, “mixture was” for “mixture is”
A volume of 1000 μL were sampled, centrifuged for 10 min at 10 000 rpm and 500 μL of the supernatant were filtered on captiva plate. The samples were diluted in duplicates in DMSO (F100 and F10). Then, a final dilution (F100) in 80/20 H2O/MeCN containing the internal standard (warfarin) was used for LCMS-MS analysis.
A standard curve was made starting from a 40,000 ng/mL stock in DMSO, freshly prepared from dry matter. Then, successive concentrations at 15,000, 11,000, 6,000, 2,500, 1,000, 375, 150 and 75 ng/mL in DMSO were prepared.
Three quality control samples were made: one of 10,000, 1,500 and 200 ng/mL in DMSO, also starting from the DMSO working stock solution at 40,000 ng/mL.
The standard curve and quality controls were diluted a F100 in 80/20 H2O/MeCN (with internal standard) and analyzed on LC/MS-MS (API4000 or API5500).
as §2, with “were” for “are”, “was” for “is”, “90% acetonitrile and 10% of water.” for “MeCN.”, “Agilent. […]” for “Agilent.”

[1] = Fasted State Simulated Gastric Fluid, 24 h
[2] = Fasted State Simulated Intestine Fluid, 24 h
[3] = Fasted State Simulated Gastric Fluid (FaSSGF), fassgf or other biorelevant, Fasted State Simulated Gastric Fluid, read-out: Tsol FaSSGF
[4] = Fasted State Simulated Intestine Fluid (FaSSIF), fassif, Fasted State Simulated Intestine Fluid, read-out: Tsol FaSSIF
[5] = Fed State Simulated Intestine Fluid (FeSSIF), fessif, Fed State Simulated Intestine Fluid, read-out: Tsol FeSSIF

Compound	solubility thermodynamic at 24 h [3]	solubility thermodynamic at 24 h [4]	other results
CNC(=O)c1cc2nc(CCC(C)(C)O)cn2cc1NC(=O)c1cccc(C(F)(F)F)n1 [Compound 2, 2-(3-hydroxy-3-methyl-butyl)-N-methyl-6-[[6-(trifluoromethyl)pyridine-2-carbonyl]amino]imidazo[1,2-a]pyridine-7-carboxamide]			Tsol FaSSGF [1]: 673 µg/mL and 969 µg/mL; Tsol FaSSIF [2]: 9.08 µg/mL and 9.24 µg/mL; Tsol FeSSIF (Fed State Simulated Intestine Fluid, 24 h): 35.4 µg/mL and 25.8 µg/mL
COc1cc2nc(CCC(C)(C)O)cn2cc1NC(=O)c1cccc(C(F)(F)F)n1 [Compound 3, N-[2-(3-hydroxy-3-methyl-butyl)-7-methoxy-imidazo[1,2-a]pyridin-6-yl]-6-(trifluoromethyl)pyridine-2-carboxamide]	880 µg/mL (≈ 2080 µM)	31.4 µg/mL (≈ 74.3 µM)	solubility thermodynamic at 24 h [5]: 360 µg/mL (≈ 852 µM)
COc1cc2nc(CCC(C)(C)O)cn2cc1NC(=O)c1cccn(C)c1=O [Compound 4, N-[2-(3-hydroxy-3-methyl-butyl)-7-methoxy-imidazo[1,2-a]pyridin-6-yl]-1-methyl-2-oxo-pyridine-3-carboxamide]	116 µg/mL (≈ 302 µM)	125 µg/mL (≈ 325 µM)	
COc1cc2nc(CCC(C)(C)O)cn2cc1NC(=O)c1cccn(C2CC2)c1=O [Compound 5, 1-cyclopropyl-N-[2-(3-hydroxy-3-methyl-butyl)-7-methoxy-imidazo[1,2-a]pyridin-6-yl]-2-oxo-pyridine-3-carboxamide]	> 1000 µg/mL	798 µg/mL (≈ 1940 µM)	solubility thermodynamic at 24 h [5]: > 1000 µg/mL
COc1cc2nc(CCC(C)(C)O)cn2cc1NC(=O)c1cccc(C)n1 [Compound 6, N-[2-(3-hydroxy-3-methyl-butyl)-7-methoxy-imidazo[1,2-a]pyridin-6-yl]-6-methyl-pyridine-2-carboxamide]		692 µg/mL (≈ 1880 µM)	
COc1cc2nc(CCC(C)(C)O)cn2cc1NC(=O)c1cccc(C(F)F)n1 [Compound 7, 6-(difluoromethyl)-N-[2-(3-hydroxy-3-methyl-butyl)-7-methoxy-imidazo[1,2-a]pyridin-6-yl]pyridine-2-carboxamide]		15.2 µg/mL (≈ 37.6 µM)	
COc1cccc(C(=O)Nc2cn3cc(CCC(C)(C)O)nc3cc2OC)n1 [Compound 8, N-[2-(3-hydroxy-3-methyl-butyl)-7-methoxy-imidazo[1,2-a]pyridin-6-yl]-6-methoxy-pyridine-2-carboxamide]		8.56 µg/mL (≈ 22.3 µM)	
COc1cc2nc(CCC(C)(C)O)cn2cc1NC(=O)c1cccn(C(F)F)c1=O [Compound 12, 1-(difluoromethyl)-N-[2-(3-hydroxy-3-methyl-butyl)-7-methoxy-imidazo[1,2-a]pyridin-6-yl]-2-oxo-pyridine-3-carboxamide]	> 1000 µg/mL	188 µg/mL (≈ 447 µM)	
COc1cc2nc(CCC(C)(C)O)cn2cc1NC(=O)c1cccn(CC(F)(F)F)c1=O [Compound 13, N-[2-(3-hydroxy-3-methyl-butyl)-7-methoxy-imidazo[1,2-a]pyridin-6-yl]-2-oxo-1-(2,2,2-trifluoroethyl)pyridine-3-carboxamide]		600 µg/mL (≈ 1330 µM)	
COc1cc2nc(CCC(C)(C)O)cn2cc1NC(=O)c1cccn(C2CCC2)c1=O [Compound 18, 1-cyclobutyl-N-[2-(3-hydroxy-3-methyl-butyl)-7-methoxy-imidazo[1,2-a]pyridin-6-yl]-2-oxo-pyridine-3-carboxamide]		253 µg/mL (≈ 596 µM)	
COc1cc2nc(CCC(C)(C)O)cn2cc1NC(=O)c1cccc(C(C)(F)F)n1 [Compound 20, 6-(1,1-difluoroethyl)-N-[2-(3-hydroxy-3-methyl-butyl)-7-methoxy-imidazo[1,2-a]pyridin-6-yl]pyridine-2-carboxamide]		2.63 µg/mL (≈ 6.29 µM)	
CCn1cccc(C(=O)Nc2cn3cc(CCC(C)(C)O)nc3cc2OC)c1=O [Compound 23, 1-ethyl-N-[2-(3-hydroxy-3-methyl-butyl)-7-methoxy-imidazo[1,2-a]pyridin-6-yl]-2-oxo-pyridine-3-carboxamide]	> 1000 µg/mL	459 µg/mL (≈ 1150 µM)	
COc1cc2nc(CCS(C)(=O)=O)cn2cc1NC(=O)c1cccc(C(F)(F)F)n1 [Compound 24, N-[7-methoxy-2-(2-methylsulfonylethyl)imidazo[1,2-a]pyridin-6-yl]-6-(trifluoromethyl)pyridine-2-carboxamide]	> 1000 µg/mL	2.44 µg/mL (≈ 5.52 µM)	
COc1cc2nc(CCS(C)(=O)=O)cn2cc1NC(=O)c1cccn(C2CC2)c1=O [Compound 25, 1-cyclopropyl-N-[7-methoxy-2-(2-methylsulfonylethyl)imidazo[1,2-a]pyridin-6-yl]-2-oxo-pyridine-3-carboxamide]		41.5 µg/mL (≈ 96.4 µM)	
CC(C)(O)CCc1cn2cc(NC(=O)c3cccc(C(F)(F)F)n3)c(C(N)=O)cc2n1 [Compound 31, 2-(3-hydroxy-3-methyl-butyl)-6-[[6-(trifluoromethyl)pyridine-2-carbonyl]amino]imidazo[1,2-a]pyridine-7-carboxamide]	> 1000 µg/mL	2.97 µg/mL (≈ 6.82 µM)	solubility thermodynamic at 24 h [5]: 4.4 µg/mL (≈ 10.1 µM)
COCCc1cn2cc(NC(=O)c3cccc(C(F)(F)F)n3)c(OC)cc2n1 [Compound 35, N-[7-methoxy-2-(2-methoxyethyl)imidazo[1,2-a]pyridin-6-yl]-6-(trifluoromethyl)pyridine-2-carboxamide]		< 30 µg/mL	
CCOc1c(NC(=O)c2cccn(C3CC3)c2=O)cn2cc(CCC(C)(C)O)nc2c1F [Compound 37, 1-cyclopropyl-N-[7-ethoxy-8-fluoro-2-(3-hydroxy-3-methyl-butyl)imidazo[1,2-a]pyridin-6-yl]-2-oxo-pyridine-3-carboxamide]	> 1000 µg/mL	70.5 µg/mL (≈ 159 µM)	
CCOc1c(NC(=O)c2cccn(C)c2=O)cn2cc(CCC(C)(C)O)nc2c1F [Compound 38, N-[7-ethoxy-8-fluoro-2-(3-hydroxy-3-methyl-butyl)imidazo[1,2-a]pyridin-6-yl]-1-methyl-2-oxo-pyridine-3-carboxamide]	> 1000 µg/mL	96.8 µg/mL (≈ 232 µM)	
CCOc1c(NC(=O)c2cccn(C3CC3)c2=O)cn2cc(CCS(C)(=O)=O)nc2c1F [Compound 39, 1-cyclopropyl-N-[7-ethoxy-8-fluoro-2-(2-methylsulfonylethyl)imidazo[1,2-a]pyridin-6-yl]-2-oxo-pyridine-3-carboxamide]	> 1000 µg/mL		Tsol FaSSGF [1]: >1000, μg/mL; Tsol FaSSIF [2]: 7.3 µg/mL and 7.50 µg/mL; solubility thermodynamic at 24 h [5]: 20.9 µg/mL (≈ 45.2 µM)
COc1c(NC(=O)c2cccn(C3CC3)c2=O)cn2cc(CCC(C)(C)O)nc2c1F [Compound 42, 1-cyclopropyl-N-[8-fluoro-2-(3-hydroxy-3-methyl-butyl)-7-methoxy-imidazo[1,2-a]pyridin-6-yl]-2-oxo-pyridine-3-carboxamide]	> 1000 µg/mL	181 µg/mL (≈ 422 µM)	solubility thermodynamic at 24 h [5]: 612 µg/mL (≈ 1430 µM)
